The source of these data is article PMC8118497, “Facile synthesis of PEI-based crystalline templated mesoporous silica with molecular chirality for improved oral delivery of the poorly water-soluble drug” (Drug Delivery, 2021).

Molecules are shown by their SMILES. Read-outs that look alike come from different tables or passages of the source.

Data set [1] in a line: In vivo pharmacokinetics after oral administration. Further details: species or system Sprague-Dawley rats. The note with it: rats. As to the method:
Twelve male Sprague-Dawley rats (SD rats, 180–220 g body weight) were randomly divided into three groups (n = 4): NMP group, NMP/PEIs@TA-CMS group and NMP/MCM41 group. Prior to the experiment, animals were fasted overnight with free access to water. The animals were orally administered the water suspensions of NMP, NMP/PEIs@TA-CMS and NMP/MCM4 with a drug dose of 2.5 mg. At appropriate sampling times, aliquot blood sample (about 0.6 mL) was withdrawn via the retro-orbital venous sinus, centrifuged to separate the plasma, and stored at −20 °C.
In the pretreatment procedure, 20 μL of internal standard solution (nitrendipine, 20 μg/mL) was added into 200 μL plasma sample and vortexed for 1 min. Afterwards, 100 μL NaOH (0.01 mol/L) was uniformly mixed with the system and vortexed for 1 min. The drug was extracted by 2.5 mL diethyl ether, vortexed for 5 min, and centrifugated for 12 min to separate the organic layer (2 mL). The organic layer (2 mL) was then transferred to a new tube and evaporated to dryness under a gentle stream of N2. After reconstituting with 100 μL mobile phase, the 20 μL sample was analyzed by high performance liquid chromatography (HPLC) method. The separation procedure was performed on a Kromasil ODS-2C18 column (Thermo ODS-2 Hypersil, 250 mm × 4.6 mm, […], UK) equipped with a JanuSep C18 pre-column (Liaoning, China), and the column temperature was kept at 25 °C. The UV detector was set at 240 nm. The mixture of methanol, acetonitrile and water (3:4:3, v/v/v) was selected as the optimized mobile phase with a flow rate of 1 mL/min. The NMP content was calculated according to internal standard method, and the main pharmacokinetic parameters were obtained using the software of DAS 2.0.

The subject of data set [2] is cerebral anoxia of mice induced by NaNO2. As to the kind of experiment: In vivo pharmacodynamics: survival time of mice on cerebral anoxia induced by NaNO2. Further details: species or system Kunming mice. The note with it: oral dose 0.5 mg NMP (middle dose); NaNO2 i.p. 90 min post administration. The procedure:
The pharmacodynamics study was performed to further evaluating the effect of PEIs@TA-CMS on improving the oral adsorption of NMP. 36 SPF-grade Kunming mice (18–22 g body weight) were assigned into six groups, randomly (n = 6): Normal saline group, NMP group, NMP/PEIs@TA-CMS (low dose) group, NMP/PEIs@TA-CMS (middle dose) group, NMP/PEIs@TA-CMS (high dose) group and NMP/MCM41 group. Before dosing, animals were fasted overnight with free access to water. Animals in the Normal Saline group were received oral treatment of 0.5 mL normal saline, and were considered as negative control. While for NMP group which severed as positive control, 0.5 mg pure NMP was suspended in 0.5 mL normal saline and was imposed to animals. Normal saline suspensions of NMP/PEIs@TA-CMS and NMP/MCM41 containing 0.5 mg NMP were also oral administrated to mice. Meanwhile, half and twice of the dose in NMP/PEIs@TA-CMS (middle dose) group, which were respectively in doses equivalent to 0.25 mg and 1 mg NMP, were given to mice to further study the influence of dose. […] Then the clinic manifestation and survival time of mice was recorded to study the protective effect of NMP formulations on mice cerebral anoxia.

For data set [3] the following is noted: background statement, no reference given; cited from earlier work.
Data set [4] in a line: In vitro release of NMP, USP II paddle method in 0.5% SDS solution. It is filed as physicochemical. Particulars: 250 mL, 37 °C, 50 rpm, 10 mg NMP. The procedure: The in vitro release behavior of samples was assessed by a USP II paddle method on a dissolution apparatus (ZRS-8G, Huanghai Medicament Test Instrument, China). Prewarmed medium of 0.5% (w/v) sodium dodecyl sulfate (SDS) solution (250 mL, 37 °C) was added to the dissolution cup with a stirrer rotation speed of 50 rpm. 10 mg NMP, NMP/MCM41 and NMP/PEIs@TA-CMSs samples containing 10 mg of NMP were suspended in the release medium. 5 mL of aliquots were collected and replaced by an equal volume of fresh isothermal supplement at predetermined time intervals, After filtering through a 0.22 μm membrane filter, the drug release amounts were tested by UV spectroscopy (UV-1750, Shimadzu, Japan) at 238 nm. All in vitro release studies were repeated three times.

Turning to `COCCOC(=O)C1=C(C)NC(C)=C(C(=O)OC(C)C)C1c1cccc([N+](=O)[O-])c1` (stereo not drawn) [NMP, nimodipine], in data set [1] (male, Sprague-Dawley, rat, plasma, drug dose 2.5 mg), the half-life is 10.9 ± 1.13 h. For the same compound, in data set [1] (male, Sprague-Dawley, rat, plasma, drug dose 2.5 mg, read-out: MRT0-∞), the MRT inf came out at 8.84 ± 1.73 h. The Cmax in data set [1] (male, Sprague-Dawley, rat, plasma, drug dose 2.5 mg, read-out: maximum concentration (Cmax)) is 100 ng/mL. The compound also yielded an area under the curve AUC(0-inf) in data set [1] (male, Sprague-Dawley, rat, plasma, drug dose 2.5 mg, water suspension) of 1190 ± 160 ng·h/mL. Moreover, in data set [1] (drug dose 2.5 mg), the Cmax is 100 ± 20 ng/mL and the Tmax is recorded as 0.5 ± 0 h. This compound registered a Relative bioavailability in data set [1] (drug dose 2.5 mg, relative to pure NMP) of 100%. In addition, in data set [1] (post administration, suggests enterohepatic circulation), the “time of second plasma concentration peak (double peaks)” value turned out to be 8 h. The “survival time of mice after injection of NaNO2” value in data set [2] was 14.33 min. Also, the bioavailability entry in data set [3] is listed as “lower than 13%”. Also, in data set [4], the “drug release amount within 60 min” value is 29.24% and the “drug release amount within 240 min” value came to 41.32%.

As a reminder, the half-life is how long it takes for the measured level to halve. Higher therefore signals slow loss. Usually AUC(0-inf) stands for the area under the concentration-time curve extrapolated to infinity. Broadly, the Tmax is the time at which the peak concentration occurs.
